Assays:
[1] = test system: DU145 (PSMA-negative) cells; assay: In vitro uptake assay, DU145 cells; type: cell-based, human; settings: 0.5 nM, 37 °C, up to 2 h, N = 2–5 in duplicate
Protocol: (§1) The human PCa cell lines LNCaP (PSMA-positive) (American Type Culture Collection (ATCC), CRL-1740; Manassas, VA, USA) and DU145 (PSMA-negative) (kindly provided by Dr. Carmen Jerónimo Lab at IPO-Porto) were maintained at 37 °C in a humidified incubator enriched with 5% carbon dioxide. The cells were grown in Roswell Park Memorial Institute (RPMI) 1640 medium (Sigma-Aldrich, R4130; St. Louis, MI, USA) supplemented with 0.2% (w/v) sodium bicarbonate (Sigma-Aldrich, S6297), 10% heat-inactivated fetal bovine serum (FBS; Gibco, A5256801; Grand Island, NY, USA), 1 mM sodium pyruvate (Gibco, 11360-070), and 1% antibiotic-antimycotic (Anti-Anti 100X, Gibco, 15240-062). LNCaP and DU145 cells were seeded in 12-well plates (0.3 × 10^6 cells/well/mL) 48 h before the experiments and the day before, respectively. The multiwell plates used for the LNCaP cell line were previously coated with poly-l-lysine (PLL, Innoprot; Bizcaia, Spain) for 4–6 h to prevent cell detachment during the assays. Both PSMA-positive and -negative cells were incubated with 0.5 nM of ^61Cu-radiopharmaceuticals at 37 °C for different time periods up to 2 h. […] The radioactivity of both the supernatant and cellular fraction was measured in a CRC-55tW gamma-well counter (Mirion Technologies; Atlanta, GA, USA). Cellular uptake was calculated as a percentage of the total radioactivity measured for each well. […]

[2] = parameters: species or system mice; settings: mouse
[3] = test system: PSMA-positive tumor xenografts (LNCaP); parameters: species or system mice; settings: mouse, in vivo
Protocol: Animal studies were approved by the Animal Welfare Committee of the Institute of Nuclear Sciences Applied to Health (ICNAS; ORBEA 01-2018) and the Portuguese National Authority for Animal Health (DGAV). Male athymic Swiss nude mice aged 9-12 weeks (34–36 g) were supplied by ICNAS, housed under pathogen-free conditions in individually ventilated cages with controlled temperature/humidity (22 °C/55%) environment on a 12 h light–dark cycle, and provided with food and water ad libitum. […] Tumor growth was monitored with a digital caliper and PET/MRI scans were performed when tumor xenografts reached 5–7 mm in diameter (~75–130 mm^3, as calculated by the formula Length × Width^2 × 0.5), approximately 9 weeks after inoculation.
[^61Cu]Cu-DOTAGA-PSMA-I&T (~0.37 MBq/g; ~3.56 nmol; N = 2) or [^61Cu]Cu-NODAGA-PSMA-I&T (~0.37 MBq/g; ~0.653 nmol; N = 3) in NaCl 0.9% with 10% EtOH was intravenously injected into the tail vein of anesthetized mice. […] Respiratory rate and body temperature were monitored throughout the imaging procedures (SA Instruments, Inc.; Stony Brook, NY, USA). […] For quantitative PET imaging processing, PMOD v3.6 and FUSION Tool (PMOD Technologies; Zürich, Switzerland; RRID:SCR_016547) were used to delineate volumes of interest (VOIs) on the PET images co-registered with the respective MRI. […] Uptake values were expressed as percentage of injected dose per gram of tissue (% ID/g).

[4] = test system: LNCaP (PSMA-positive) cells; assay: In vitro uptake assay, LNCaP cells; type: cell-based, human; settings: 0.5 nM, 37 °C, up to 2 h, later time points; % of total radioactivity per well, gamma counter; mean ± SEM, N = 2–5 in duplicate
Protocol: as §1

O=C(O)CC[C@H](NC(=O)N[C@@H](CCCCNC(=O)CCCCCCC(=O)NCCCC[C@@H](NC(=O)[C@@H](Cc1ccccc1)NC(=O)[C@@H](Cc1ccc(O)c(I)c1)NC(=O)CCC(C(=O)O)N1CCN(CC(=O)O)CCN(CC(=O)O)CC1)C(=O)O)C(=O)O)C(=O)O (stereo partly shown) [[^61Cu]Cu-NODAGA-PSMA-I&T, metal not drawn]
cellular uptake in DU145 cells [1]: remained at basal levels | in vivo stability [2]: remarkable in vivo metabolic stability | clearance route [3]: clearance predominantly through the renal pathway | maximum cellular uptake in LNCaP cells [4]: 13.16 ± 0.15%

[^61Cu]Cu-DOTAGA-PSMA-I&T
cellular uptake in DU145 cells [1]: remained at basal levels | in vivo stability [2]: poor kinetic stability in vivo | maximum cellular uptake in LNCaP cells [4]: 14.09 ± 0.84%
